≈ marks a conversion by molar mass, not a printed value.
How the values were obtained:
[1] = system: methicillin-susceptible S. aureus (MSSA, 22); assay: MIC broth microdilution, MSSA; details: MSSA (22)
[2] = system: vancomycin-intermediate S. aureus (VISA, 5); assay: MIC broth microdilution, VISA
[3] = system: vancomycin-resistant S. aureus (VRSA, 6); assay: MIC broth microdilution, VRSA
[4] = system: heterogeneous VISA (hVISA, 10); assay: MIC broth microdilution, hVISA
S. pneumoniae (22) = assay: MIC broth microdilution, S. pneumoniae; details: for fold more potent than linezolid: S. pneumoniae; for MIC 50% / MIC 90%: S. pneumoniae (22), MHB + lysed horse blood
[5] = system: Staphylococcus epidermidis (43 strains); assay: MIC broth microdilution, S. epidermidis; details: S. epidermidis (43)
[6] = system: VanA vancomycin-resistant E. faecium (10); assay: MIC broth microdilution, VanA E. faecium; details: E. faecium, VanA (10)
[7] = system: VanB vancomycin-resistant E. faecium (10); assay: MIC broth microdilution, VanB E. faecium; details: E. faecium, VanB (10)
S. aureus ATCC 25923 = assay: Neutropenic murine thigh infection model; details: for AUCc-t (AUC difference between control and treated animals): 24 h time kill; for in vivo efficacy against S. aureus (in words): neutropenic soft tissue infection model
[8] = system: VanA vancomycin-resistant E. faecalis (11); assay: MIC broth microdilution, VanA E. faecalis; details: E. faecalis, VanA (11)
[9] = system: VanB vancomycin-resistant E. faecalis (12); assay: MIC broth microdilution, VanB E. faecalis; details: E. faecalis, VanB (12)
[10] = system: Staphylococcus aureus (65 strains); assay: MIC broth microdilution, S. aureus all isolates; details: S. aureus (65), all resistance subsets
[11] = system: β-hemolytic streptococci (23); assay: MIC broth microdilution, β-hemolytic streptococci; details: for fold more potent than teicoplanin and daptomycin / fold more potent than vancomycin: β-hemolytic streptococci; for MIC 50% / MIC 90%: β-hemolytic streptococci (23), MHB + lysed horse blood
VanC enterococci (22) = assay: MIC broth microdilution, vanC-carrying enterococci; details: VanC enterococci (22)
[12] = system: vancomycin-susceptible E. faecium (21); assay: MIC broth microdilution, vancomycin-susceptible E. faecium; details: E. faecium, vancomycin-susceptible (21)
[13] = system: vancomycin-susceptible E. faecalis (23); assay: MIC broth microdilution, vancomycin-susceptible E. faecalis; details: E. faecalis, vancomycin-susceptible (23)
[14] = system: methicillin-resistant S. aureus (MRSA, 22); assay: MIC broth microdilution, MRSA; details: MRSA (22)
[15] = 1 mg/kg single intraperitoneal dose
[16] = 4 mg/kg single intraperitoneal dose
[17] = 16 mg/kg single intraperitoneal dose

CCCCCCCCCCNCCNC1(C)CC(OC2C(Oc3c4cc5cc3Oc3ccc(cc3Cl)C(O)C3NC(=O)C(NC(=O)C5NC(=O)C(CC(N)=O)NC(=O)C(NC(=O)C(CC(C)C)NC)C(O)c5ccc(c(Cl)c5)O4)c4ccc(O)c(c4)-c4c(cc(O)c(CNCCOCCOCC[N+](C)(C)C)c4O)C(C(=O)O)NC3=O)OC(CO)C(O)C2O)OC(C)C1O (stereo not shown) [Compound 1]
MIC 50% [1]: 0.06 µg/mL
MIC 90% [1]: 0.06 µg/mL
MIC 50% [2]: 0.12 µg/mL
MIC 50% [3]: 2 µg/mL
MIC 50% [4]: 0.06 µg/mL
MIC 90% [4]: 0.06 µg/mL
fold more potent than linezolid (S. pneumoniae (22)): 32 fold
MIC 50% (S. pneumoniae (22)): 0.015 µg/mL
MIC 90% (S. pneumoniae (22)): 0.03 µg/mL
MIC 50% [5]: 0.03 µg/mL
MIC 90% [5]: 0.06 µg/mL
MIC 50% [6]: 4 µg/mL
MIC 90% [6]: 8 µg/mL
MIC 50% [7]: 0.015 µg/mL
MIC 90% [7]: 0.03 µg/mL
Max Kill (maximum decrease from initial infection level) (S. aureus ATCC 25923; [15]): 0.15 Log10 CFU/thigh
AUCc-t (AUC difference between control and treated animals) (S. aureus ATCC 25923; [15]): 28 (Log10 CFU/thigh)/hr
Max Kill (maximum decrease from initial infection level) (S. aureus ATCC 25923; [16]): −1.14 Log10 CFU/thigh
AUCc-t (AUC difference between control and treated animals) (S. aureus ATCC 25923; [16]): 32.7 (Log10 CFU/thigh)/hr
Max Kill (maximum decrease from initial infection level) (S. aureus ATCC 25923; [17]): −1.07 Log10 CFU/thigh
AUCc-t (AUC difference between control and treated animals) (S. aureus ATCC 25923; [17]): 60.4 (Log10 CFU/thigh)/hr
in vivo efficacy against S. aureus (in words) (S. aureus ATCC 25923): bactericidal characteristics and prolonged in vivo activity
MIC 50% [8]: 8 µg/mL
MIC 90% [8]: 8 µg/mL
MIC 50% [9]: 0.12 µg/mL
MIC 90% [9]: 0.12 µg/mL
MIC 50% [10]: 0.06 µg/mL
MIC 90% [10]: 0.12 µg/mL
fold more potent than teicoplanin and daptomycin [11]: two- to four
fold more potent than vancomycin [11]: four- to eight
MIC 50% [11]: 0.03 µg/mL
MIC 90% [11]: 0.06 µg/mL
MIC 50% (VanC enterococci (22)): 0.06 µg/mL
MIC 90% (VanC enterococci (22)): 0.25 µg/mL
MIC 50% [12]: 0.03 µg/mL
MIC 90% [12]: 0.03 µg/mL
MIC 50% [13]: 0.06 µg/mL
MIC 90% [13]: 0.12 µg/mL

CCCCCCCCCCNCCNC1(C)CC(OC2C(Oc3c4cc5cc3Oc3ccc(cc3Cl)C(O)C3NC(=O)C(NC(=O)C5NC(=O)C(CC(N)=O)NC(=O)C(NC(=O)C(CC(C)C)NC)C(O)c5ccc(c(Cl)c5)O4)c4ccc(O)c(c4)-c4c(cc(O)c(CNCCOCCOCCN)c4O)C(C(=O)O)NC3=O)OC(CO)C(O)C2O)OC(C)C1O (stereo not shown) [Compound 3]
MIC 50% [1]: 0.03 µg/mL (≈ 0.0167 µM)
MIC 90% [1]: 0.06 µg/mL (≈ 0.0335 µM)
MIC 50% [14]: 0.03 µg/mL (≈ 0.0167 µM)
MIC 90% [14]: 0.06 µg/mL (≈ 0.0335 µM)
MIC 50% [2]: 0.12 µg/mL (≈ 0.0669 µM)
MIC 50% [3]: 1 µg/mL (≈ 0.558 µM)
MIC 50% [4]: 0.06 µg/mL (≈ 0.0335 µM)
MIC 90% [4]: 0.06 µg/mL (≈ 0.0335 µM)
fold more potent than linezolid (S. pneumoniae (22)): 32 fold
MIC 50% (S. pneumoniae (22)): 0.015 µg/mL
MIC 90% (S. pneumoniae (22)): 0.03 µg/mL
MIC 50% [5]: 0.03 µg/mL (≈ 0.0167 µM)
MIC 90% [5]: 0.03 µg/mL (≈ 0.0167 µM)
MIC 50% [6]: 2 µg/mL (≈ 1.12 µM)
MIC 90% [6]: 4 µg/mL (≈ 2.23 µM)
MIC 50% [7]: 0.015 µg/mL (≈ 0.00837 µM)
MIC 90% [7]: 0.015 µg/mL (≈ 0.00837 µM)
Max Kill (maximum decrease from initial infection level) (S. aureus ATCC 25923; [15]): −0.2 Log10 CFU/thigh
AUCc-t (AUC difference between control and treated animals) (S. aureus ATCC 25923; [15]): 28.4 (Log10 CFU/thigh)/hr
Max Kill (maximum decrease from initial infection level) (S. aureus ATCC 25923; [16]): −0.41 Log10 CFU/thigh
AUCc-t (AUC difference between control and treated animals) (S. aureus ATCC 25923; [16]): 32.3 (Log10 CFU/thigh)/hr
Max Kill (maximum decrease from initial infection level) (S. aureus ATCC 25923; [17]): −1.08 Log10 CFU/thigh
AUCc-t (AUC difference between control and treated animals) (S. aureus ATCC 25923; [17]): 52.9 (Log10 CFU/thigh)/hr
organism reduction across doses (S. aureus ATCC 25923; 1, 4 and 16 mg/kg intraperitoneal): organism reduction over the entire dose range
in vivo efficacy against S. aureus (in words) (S. aureus ATCC 25923): bactericidal characteristics and prolonged in vivo activity
MIC 50% [8]: 4 µg/mL (≈ 2.23 µM)
MIC 90% [8]: 8 µg/mL (≈ 4.46 µM)
MIC 50% [9]: 0.06 µg/mL (≈ 0.0335 µM)
MIC 90% [9]: 0.12 µg/mL (≈ 0.0669 µM)
MIC 50% [10]: 0.03 µg/mL (≈ 0.0167 µM)
MIC 90% [10]: 0.12 µg/mL (≈ 0.0669 µM)
fold more potent than teicoplanin and daptomycin [11]: two- to four
fold more potent than vancomycin [11]: four- to eight
MIC 50% [11]: 0.03 µg/mL
MIC 90% [11]: 0.12 µg/mL
MIC 50% (VanC enterococci (22)): 0.06 µg/mL (≈ 0.0335 µM)
MIC 90% (VanC enterococci (22)): 0.12 µg/mL (≈ 0.0669 µM)
MIC 50% [12]: 0.015 µg/mL (≈ 0.00837 µM)
MIC 90% [12]: 0.03 µg/mL (≈ 0.0167 µM)
MIC 50% [13]: 0.06 µg/mL (≈ 0.0335 µM)
MIC 90% [13]: 0.06 µg/mL (≈ 0.0335 µM)
